Results reported in US8946218B2, “CCR2 receptor antagonists, method for producing the same, and use thereof as medicaments” (Boehringer Ingelheim International GmbH, priority 2010, dated 2015).

Biological target: T1, CCR2 (Homo sapiens, UniProt P41597)
T1 construct: Membranes were prepared from THP-1 cells; endogenous in cells; host or cells: THP-1 (human acute monocytic leukaemia cells), membrane preparation
Experiment: Receptor membrane binding assay: [125I]MCP-1 binding to CCR2 on THP-1 cell membranes (SPA beads)
Details: THP-1 membranes, [125I]MCP-1, bound radioactivity after 8 h; read-out: hKi
Description: The above exemplary substances have been tested for binding to CCR2 using a binding assay as outlined herein below:
THP-1 cells (human acute monocytic leukaemia cells) were cultured under standardized conditions at 37° C. and 5% CO2 in a humidified incubator. THP-1 cells were cultivated in RPMI 1640 medium (Gibco 21875) containing 1% MEM-NEAA (Gibso 11140) 2 mM L-glutamine, 1.5 g/L sodium bicarbonate, 4.5 g/L glucose, 10 mM HEPES and 1.0 mM sodium pyruvate, 90%; 10% fetal calf serum (FCS Gibco 10500-064).
Membranes were prepared from THP-1 cells. THP-1 cells were centrifuged at 300×g at 4° C. for 10 min. The cell pellet was resuspended in Phosphate Buffer Saline (PBS, including 10 μM Pefabloc and a protease inhibitor mix ‘complete’, Boehringer Mannheim (1 tablet/50 ml)), to a concentration of […]. The membrane preparation was performed by disrupting the cells by nitrogen […] (at 50 bar, for 1 h) in a “Nitrogen Bombe” (Parr Instrument). Cell debris was removed by centrifugation (800×g at 4° C., 1 min). The supernatant was centrifuged at 80000×g, 4° C. for 30 min to sediment the cell membranes. Usually 50 mg of protein (Bradford assay) were yielded from 1×10E9 cells. The membranes were resuspended in 25 mM HEPES, 25 mM MgCl2, 1 mM CaCl2, 10% Glycerine for storage in aliquots at −80° C. in 25 mM HEPES, 25 mM MgCl2, 1 mM CaCl2, 10% Glycerine and stored at −80° C.
Receptor Membrane Binding Assay:
Perkin Elmer NEX 332 Jod 125 MCP-1, Stock: 2200 Ci/mmol solved in 2000 μl assay buffer, stored at −20° C. THP-1 membrane were adjusted with 25 mM HEPES, pH 7.2; 5 mM MgCl2; 0.5 mM CaCl2; 0.2% BSA assay buffer to a concentration of 2.5 μg/15 μl. Amersham Biosciences PVT-WGA Beads (RPNQ0001) were adjusted with assay buffer to a concentration of 0.24 mg/30 μl. For preparation of the membrane-bead-suspension membranes and beads were incubated for 30 min at RT under rotation (60 rpm) with a ratio of 1:2. Test compounds dissolved in 100% DMSO to a concentration of 10 mM and are further diluted with 100% DMSO to 1 mM. All additional compound dilutions were obtained with assay buffer, final 1% DMSO. Compounds, membrane-bead-suspension and [125I]MCP-1 (ca. 25000 cpm/10 μl) were incubated. Bound radioactivity was determined by scintillation counter after 8 h. Determination of affinity of test compounds (dissociation constant hKi) is calculated by iterative fitting of experimental data using the “easy sys” program, which is based on law of mass action (Schittkowski K. (1994), Numerische Mathematik, Vol. 68, 129-142).

T1 sequence (P41597 whole entry): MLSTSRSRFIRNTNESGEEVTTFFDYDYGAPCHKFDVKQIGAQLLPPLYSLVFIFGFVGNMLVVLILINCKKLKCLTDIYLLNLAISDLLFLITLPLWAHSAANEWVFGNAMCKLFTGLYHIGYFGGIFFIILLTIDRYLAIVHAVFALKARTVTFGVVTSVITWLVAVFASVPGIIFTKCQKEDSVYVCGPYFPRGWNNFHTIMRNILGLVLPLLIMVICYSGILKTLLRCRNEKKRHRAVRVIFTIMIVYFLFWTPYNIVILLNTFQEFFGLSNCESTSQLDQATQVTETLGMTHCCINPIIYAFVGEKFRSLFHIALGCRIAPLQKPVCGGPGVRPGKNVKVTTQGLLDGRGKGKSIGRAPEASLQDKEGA

Ki [nM]	Compound
1	CO[C@@H]1COCC[C@@H]1NC1CCN(C(=O)c2ncnc(Nc3ccc(Cl)c(Cl)c3)c2C)CC1 [Example 17a]
5	CO[C@H]1COCC[C@H]1NC1CCN(C(=O)c2ncnc(Nc3ccc(Cl)c(Cl)c3)c2C)CC1 [Example 17b]
0.5	COc1nc(Nc2ccc(Cl)c(Cl)c2)c(C)c(C(=O)N2CCC(N[C@H]3CCOC[C@H]3OC)CC2)n1 [Example 33a]
0.7	COc1nc(Nc2ccc(Cl)c(Cl)c2)c(C)c(C(=O)N2CCC(N[C@@H]3CCOC[C@@H]3OC)CC2)n1 [Example 33b]
0.2	CO[C@@H]1COCC[C@@H]1NC1CCN(C(=O)c2nc(C(F)(F)F)nc(Nc3ccc(Cl)c(Cl)c3)c2C)CC1 [Example 33c]
0.3	CO[C@H]1COCC[C@H]1NC1CCN(C(=O)c2nc(C(F)(F)F)nc(Nc3ccc(Cl)c(Cl)c3)c2C)CC1 [Example 33d]
23	Cc1c(Nc2ccc(Cl)c(Cl)c2)ncnc1C(=O)N1CCC(N[C@H]2CCOC[C@H]2F)CC1 [Example 33e]
8	Cc1c(Nc2ccc(Cl)c(Cl)c2)ncnc1C(=O)N1CCC(N[C@@H]2CCOC[C@@H]2F)CC1 [Example 33g]
2	COc1nc(Nc2ccc(Cl)c(Cl)c2)c(C)c(C(=O)N2CCC(NC3CCOCC3F)CC2)n1 (centres unmarked) [Example 33h]
3	COc1nc(Nc2cccc(C(F)(F)F)c2)c(C)c(C(=O)N2CCC(N[C@@H]3CCOC[C@@H]3OC)CC2)n1 [Example 33i]
1	COc1nc(Nc2cccc(C(F)(F)F)c2)c(C)c(C(=O)N2CCC(N[C@H]3CCOC[C@H]3OC)CC2)n1 [Example 33j]
5	COc1nc(Nc2cccc(C(F)(F)F)c2)c(C)c(C(=O)N2CCC(NC3CCOCC3F)CC2)n1 (centres unmarked) [Example 33k]
6	Cc1c(Nc2ccc(Cl)c(Cl)c2)ncnc1C(=O)N1CCC(NC2CCOCC2)CC1 [Example 33l]
0.7	COc1nc(Nc2ccc(Cl)c(Cl)c2)c(C)c(C(=O)N2CCC(NC3CCOCC3)CC2)n1 [Example 33m]
1	Cc1c(Nc2ccc(Cl)c(Cl)c2)nc(C(F)(F)F)nc1C(=O)N1CCC(NC2CCOCC2)CC1 [Example 33n]
0.2	CO[C@@H]1COCC[C@@H]1NC1CCN(C(=O)c2nc(C3CC3)nc(Nc3ccc(Cl)c(Cl)c3)c2C)CC1 [Example 33o]
0.3	CO[C@H]1COCC[C@H]1NC1CCN(C(=O)c2nc(C3CC3)nc(Nc3ccc(Cl)c(Cl)c3)c2C)CC1 [Example 33p]
0.8	Cc1c(Nc2ccc(Cl)c(Cl)c2)nc(C2CC2)nc1C(=O)N1CCC(N[C@H]2CCOC[C@H]2F)CC1 [Example 33q]
0.9	Cc1c(Nc2ccc(Cl)c(Cl)c2)nc(C2CC2)nc1C(=O)N1CCC(N[C@@H]2CCOC[C@@H]2F)CC1 [Example 33r]
1	Cc1c(Nc2cccc(C(F)(F)F)c2)nc(C2CC2)nc1C(=O)N1CCC(N[C@@H]2CCOC[C@@H]2F)CC1 [Example 33s]
0.3	CO[C@@H]1COCC[C@@H]1NC1CCN(C(=O)c2nc(C3CC3)nc(Nc3cccc(C(F)(F)F)c3)c2C)CC1 [Example 33t]
1	Cc1c(Nc2cccc(C(F)(F)F)c2)nc(C2CC2)nc1C(=O)N1CCC(N[C@H]2CCOC[C@H]2F)CC1 [Example 33u]
0.4	CO[C@H]1COCC[C@H]1NC1CCN(C(=O)c2nc(C3CC3)nc(Nc3cccc(C(F)(F)F)c3)c2C)CC1 [Example 33v]
3	COc1nc(Nc2cccc(C(F)(F)F)c2)c(C)c(C(=O)N2CCC(NC3CCOCC3)CC2)n1 [Example 33w]

More lines, now with the values behind:

Compound	Ki [nM]
COC1COCCC1NC1CCN(C(=O)c2ncnc(Nc3cccc(C(F)(F)F)c3)c2C)CC1 (centres unmarked) [Example 1]	16
COC1COCCC1NC1CCN(C(=O)c2ncnc(Nc3cc(C(F)(F)F)cc(C(F)(F)F)c3)c2C)CC1 (centres unmarked) [Example 2]	121
COC1COCCC1NC1CCN(C(=O)c2ncnc(Nc3ccccc3)c2C)CC1 (centres unmarked) [Example 3]	450
COC1COCCC1NC1CCN(C(=O)c2ncnc(Nc3cccc(C(F)(F)F)n3)c2C)CC1 (centres unmarked) [Example 4]	110
COC1COCCC1NC1CCN(C(=O)c2ncnc(Nc3cccc(C)c3)c2C)CC1 (centres unmarked) [Example 5]	232
CO[C@H]1COCC[C@H]1NC1CCN(C(=O)c2cc(Nc3cccc(C(F)(F)F)c3)ncn2)CC1 [Example 6]	280
CO[C@@H]1COCC[C@@H]1NC1CCN(C(=O)c2cc(Nc3cccc(C(F)(F)F)c3)ncn2)CC1 [Example 7]	138
CN(C1CCN(C2CCN(C(=O)c3cc(Nc4cccc(C(F)(F)F)c4)ncn3)CC2)CC1)S(C)(=O)=O [Example 8]	398
COC1COCCC1NC1CCN(C(=O)c2ncnc(Nc3ccc(Cl)c(Cl)c3)c2C)CC1 (centres unmarked) [Example 9]	2
COC1COCCC1NC1CCN(C(=O)c2ncnc(N(C)c3cccc(C(F)(F)F)c3)c2C)CC1 (centres unmarked) [Example 10]	481
COC1COCCC1NC1CCN(C(=O)c2ncnc(Nc3cccc(OC(F)(F)F)c3)c2C)CC1 (centres unmarked) [Example 11]	15
COC1COCCC1NC1CCN(C(=O)c2ncnc(Nc3cc(Cl)ccc3C)c2C)CC1 (centres unmarked) [Example 12]	728
COC1COCCC1NC1CCN(C(=O)c2ncnc(Nc3cccc(Cl)c3C)c2C)CC1 (centres unmarked) [Example 13]	2990
COC1COCCC1NC1CCN(C(=O)c2ncnc(Nc3cccc(F)c3)c2C)CC1 (centres unmarked) [Example 14]	146
COC1COCCC1NC1CCN(C(=O)c2ncnc(Nc3ccc(Br)cc3)c2C)CC1 (centres unmarked) [Example 15]	30
COC1COCCC1NC1CCN(C(=O)c2ncnc(Nc3cccc(-c4ccncc4)c3)c2C)CC1 (centres unmarked) [Example 16]	707
COC1COCCC1NC1CCN(C(=O)c2ncnc(Nc3ccccc3Cl)c2C)CC1 (centres unmarked) [Example 17]	5180
CO[C@@H]1COCC[C@@H]1NC1CCN(C(=O)c2ncnc(Nc3cccc(C(F)(F)F)c3)c2C)CC1 [Example 18]	6

Compound	Ki [nM]
COc1c(Nc2cccc(C(F)(F)F)c2)ncnc1C(=O)N1CCC(N[C@@H]2CCOC[C@@H]2OC)CC1 [Example 19]	49
COc1c(Nc2cccc(C(F)(F)F)c2)ncnc1C(=O)N1CCC(N[C@H]2CCOC[C@H]2OC)CC1 [Example 20]	26
COc1c(Nc2cccc(C(F)(F)F)c2)ncnc1C(=O)N1CCC(N2CCC(N(C)S(C)(=O)=O)CC2)CC1 [Example 21]	23
Cc1c(Nc2ccc3ccccc3c2)ncnc1C(=O)N1CCC(N2CCC(N(C)S(C)(=O)=O)CC2)CC1 [Example 22]	14
COC1COCCC1NC1CCN(C(=O)c2ncnc(Nc3ccc4ccccc4c3)c2C)CC1 (centres unmarked) [Example 23]	17
Cc1c(Nc2cc3ccccc3c(C)n2)ncnc1C(=O)N1CCC(N2CCC(N(C)S(C)(=O)=O)CC2)CC1 [Example 24]	854
CO[C@@H]1COCC[C@@H]1NC1CCN(C(=O)c2ccnc(Nc3cccc(C(F)(F)F)c3)c2C)CC1 [Example 25]	165
CO[C@H]1COCC[C@H]1NC1CCN(C(=O)c2ccnc(Nc3cccc(C(F)(F)F)c3)c2C)CC1 [Example 26]	46
CO[C@@H]1COCC[C@@H]1NC1CCN(C(=O)c2nccc(Nc3cccc(C(F)(F)F)c3)c2C)CC1 [Example 27]	5
CO[C@H]1COCC[C@H]1NC1CCN(C(=O)c2nccc(Nc3cccc(C(F)(F)F)c3)c2C)CC1 [Example 28]	10
Cc1c(Nc2cccc(C(F)(F)F)c2)ncnc1C(=O)N1CCC(N2CCOCC2)CC1 [Example 29]	53
CO[C@@H]1COCC[C@@H]1NC1CCN(C(=O)c2ncnc(Nc3ccc(Cl)c(C(F)(F)F)c3)c2C)CC1 [Example 30]	1480
CO[C@H]1COCC[C@H]1NC1CCN(C(=O)c2ncnc(Nc3ccc(Cl)c(C(F)(F)F)c3)c2C)CC1 [Example 31]	5310
CO[C@@H]1COCC[C@@H]1NC1CCN(C(=O)c2cc(Nc3cccc(C(F)(F)F)c3)nc(C(F)(F)F)n2)CC1 [Example 32]	64
CO[C@H]1COCC[C@H]1NC1CCN(C(=O)c2cc(Nc3cccc(C(F)(F)F)c3)nc(C(F)(F)F)n2)CC1 [Example 33]	36
COC1COCCC1NC1CCN(C(=O)c2ncnc(Nc3cc4ccccc4c(C)n3)c2C)CC1 (centres unmarked) [Example 34]	1010
CO[C@@H]1COCC[C@@H]1NC1CCN(C(=O)c2ncnc(Nc3ccc4ccccc4c3)c2C)CC1 [Example 35]	26
